Key:
[1] = system: Blumeria graminis f. sp. tritici (Erysiphe graminis f. sp. tritici); assay: Blumeria graminis f. sp. tritici / wheat / leaf disc preventative (powdery mildew on wheat); assay type: in vivo; conditions: foliar, wheat leaf segments cv. Kanzler, compared to untreated control leaf disks, read-out: disease control
Source text: Blumeria graminis f. sp. tritici (Erysiphe graminis f. sp. tritici)/Wheat/Leaf Disc Preventative (Powdery Mildew on Wheat) Wheat leaf segments cv. Kanzler were placed on agar in a multiwell plate (24-well format) and sprayed with the formulated test compound diluted in water. The leaf disks were inoculated by shaking powdery mildew infected plants above the test plates 1 day after application.

[2] = system: Puccinia recondita f. sp. tritici; assay: Puccinia recondita f. sp. tritici / wheat / leaf disc preventative (brown rust); assay type: in vivo; conditions: foliar, wheat leaf segments cv. Kanzler, compared to untreated control leaf disks, read-out: disease control
Experimental: Puccinia recondita f. sp. tritici/Wheat/Leaf Disc Preventative (Brown Rust) Wheat leaf segments cv. Kanzler were placed on agar in multiwell plates (24-well format) and sprayed with the formulated test compound diluted in water. The leaf disks were inoculated with a spore suspension of the fungus 1 day after application. The inoculated leaf segments were incubated at 19° C. and 75% rh under a light regime of 12 h light/12 h darkness in a climate cabinet and the activity of a compound was assessed as percent disease control compared to untreated when an appropriate level of disease damage appears in untreated check leaf segments (7-9 days after application).

[3] = system: Puccinia recondita f. sp. tritici; assay: Puccinia recondita f. sp. tritici / wheat / leaf disc curative (brown rust); assay type: in vivo; conditions: foliar, 24 h, wheat leaf segments cv. Kanzler, curative (applied 1 day after inoculation), compared to untreated control leaf disks, read-out: disease control
Experimental: Puccinia recondita f. sp. tritici/Wheat/Leaf Disc Curative (Brown Rust) Wheat leaf segments cv. Kanzler are placed on agar in multiwell plates (24-well format). The leaf segments are inoculated with a spore suspension of the fungus. Plates were stored in darkness at 19° C. and 75% rh. The formulated test compound diluted in water was applied 1 day after inoculation.

Phakopsora pachyrhizi = Phakopsora pachyrhizi / soybean / leaf disk preventative (soybean rust); assay type: in vivo; conditions: foliar, soybean leaf disks, compared to untreated control leaf disks, read-out: disease control
Experimental: Phakopsora pachyrhizi/Soybean/Leaf Disk Preventative (Soybean Rust) Four-week old soybean plants are sprayed in a spray chamber with the formulated test compound diluted in water. Leaf disks are cut from treated plants and placed on agar into 24-well plates one day after application. Leaf disks are inoculated by spraying them with a spore suspension on their lower leaf surface. After an incubation period in a climate cabinet of 24-36 hours in darkness at 20° C. and 75% rh, the leaf disks are then kept at 20° C. with 12 h light/day and 75% rh. The percentage leaf disk area covered by disease is assessed when an appropriate level of disease appears on untreated check plants (12-14 days after application).

| Compound | melting point | pest or weed control at 200 ppm [1] | pest or weed control at 200 ppm [2] | pest or weed control at 200 ppm [3] | pest or weed control at 200 ppm (Phakopsora pachyrhizi) |
| --- | --- | --- | --- | --- | --- |
| CCN(C)/C=N/c1cc(OC)c(C(O)(c2ccc(OC)nc2)C(F)(F)F)cc1C (centres unmarked) [Compound E1.107] | 100 to 102 °C | ≥ 80% | ≥ 80% | ≥ 80% |  |
| CCOc1cc(/N=C/N(C)CC)c(C)cc1C(O)(c1ccccc1)C(F)(F)F (centres unmarked) [Compound E1.002] | 148 to 151 °C |  | ≥ 80% | ≥ 80% | ≥ 80% |
| COc1cc(/N=C/N(C)C(C)C)c(C)cc1C(O)(C(C)C)C(F)(F)F (centres unmarked) [Compound E1.067] | 78 to 79 °C | ≥ 80% | ≥ 80% | ≥ 80% | ≥ 80% |
| CCN(C)/C=N/c1cc(OC)c(C(O)(c2ccc(Cl)cc2)C(F)(F)F)cc1C (centres unmarked) [Compound E1.021] | 134 to 135 °C | ≥ 80% | ≥ 80% | ≥ 80% |  |
| CCN(C)/C=N/c1cc(OC)c(C(O)(C#CC2CCCCC2)C(F)(F)F)cc1C (centres unmarked) [Compound E1.085] | 62 to 64 °C |  |  | ≥ 80% |  |
| CCN(C)/C=N/c1cc(OC)c(C(O)(CC)c2ccccc2)cc1C (centres unmarked) [Compound E1.126] | 87 to 89 °C | ≥ 80% | ≥ 80% | ≥ 80% | ≥ 80% |
| CCN(C)/C=N/c1cc(OC)c(C(O)(c2cccc(OC(F)F)c2)C(F)(F)F)cc1C (centres unmarked) [Compound E1.044] | 119 to 121 °C | ≥ 80% |  | ≥ 80% | ≥ 80% |
| C=C(C)CC(O)(c1cc(C)c(/N=C/N(C)C(C)C)cc1OC)C(F)(F)F (centres unmarked) [Compound E1.082] | 90 to 95 °C | ≥ 80% | ≥ 80% | ≥ 80% | ≥ 80% |
| CCN(C)/C=N/c1cc(OC)c(C(O)(c2ccccc2)C(C)(C)C)cc1C (centres unmarked) [Compound E1.125] | 90 to 92 °C |  | ≥ 80% | ≥ 80% | ≥ 80% |
| CCN(C)/C=N/c1cc(OC)c(C(O)(C(F)(F)F)C(F)(F)F)cc1C [Compound E1.001] | 126 to 128 °C | ≥ 80% | ≥ 80% | ≥ 80% | ≥ 80% |
| COc1cc(/N=C/N(C)C(C)C)c(C)cc1C(O)(c1ccccc1)C(F)(F)F (centres unmarked) [Compound E1.009] | 110 to 111 °C |  | ≥ 80% | ≥ 80% |  |
| CCN(C)/C=N/c1cc(OC)c(C(O)(c2ccc(Br)cc2)C(F)(F)F)cc1C (centres unmarked) [Compound E1.025] | 127 to 129 °C | ≥ 80% | ≥ 80% | ≥ 80% |  |
| CCN(C)/C=N/c1cc(OC)c(C(O)(c2ccc(OC(F)F)cc2)C(F)(F)F)cc1C (centres unmarked) [Compound E1.045] | 85 to 87 °C | ≥ 80% |  | ≥ 80% | ≥ 80% |
| CCOC(=O)c1ccc(C(O)(c2cc(C)c(/N=C/N(C)CC)cc2OC)C(F)(F)F)cc1 (centres unmarked) [Compound E1.039] | 118 to 120 °C | ≥ 80% |  | ≥ 80% |  |
| CCN(C)/C=N/c1cc(OC)c(C(O)(c2ccccc2)C(C)C)cc1C (centres unmarked) [Compound E1.124] | 82 to 84 °C |  | ≥ 80% | ≥ 80% | ≥ 80% |
| CCN(C)/C=N/c1cc(OC)c(C(O)(Cc2cc(C)nc(OC)n2)C(F)(F)F)cc1C (centres unmarked) [Compound E1.094] | 117 to 119 °C | ≥ 80% | ≥ 80% | ≥ 80% |  |
| CCN(C)/C=N/c1cc(OC)c(C(O)(Cc2ccc(Cl)cc2)C(F)(F)F)cc1C (centres unmarked) [Compound E1.090] | 63 to 65 °C | ≥ 80% |  | ≥ 80% | ≥ 80% |
| CCN(C)/C=N/c1cc(OC)c(C(O)(C#Cc2ccccc2)C(F)(F)F)cc1C (centres unmarked) [Compound E1.073] | 88 to 90 °C |  | ≥ 80% |  |  |
| CCN(C)/C=N/c1cc(OC)c(C(O)(c2ccc(C#N)cc2)C(F)(F)F)cc1C (centres unmarked) [Compound E1.040] | 167 to 169 °C | ≥ 80% |  | ≥ 80% |  |
| CCN(C)/C=N/c1cc(OC)c(C(O)(c2ccc(SC(F)(F)F)cc2)C(F)(F)F)cc1C (centres unmarked) [Compound E1.037] | 64 to 66 °C | ≥ 80% |  | ≥ 80% | ≥ 80% |
| CCN(C)/C=N/c1cc(OC)c(C(O)(c2ccc(F)c(F)c2)C(F)(F)F)cc1C (centres unmarked) [Compound E1.128] | 108 to 110 °C |  |  |  |  |
| COc1cc(/N=C/N(C)C(C)C)c(C)cc1C(O)(c1cccnc1F)C(F)(F)F (centres unmarked) [Compound E1.158] | 120 to 122 °C |  |  |  |  |
| COc1cc(/N=C/N(C)C(C)C)c(C)cc1C(O)(C=C(C)C)C(F)(F)F (centres unmarked) [Compound E1.141] | 77 to 79 °C |  |  |  |  |
| CCN(C)/C=N/c1cc(OC)c(C(O)(c2ccc(C(F)(F)F)cc2)C(F)(F)F)cc1C (centres unmarked) [Compound E1.019] | 124 to 126 °C | ≥ 80% | ≥ 80% | ≥ 80% |  |
| CCCCC(O)(c1cc(C)c(/N=C/N2CCCC2)cc1OC)C(F)(F)F (centres unmarked) [Compound E1.134] | 103 to 105 °C |  |  |  |  |

Further lines, with some results ahead:

| melting point | Compound | pest or weed control at 200 ppm [1] | pest or weed control at 200 ppm [2] | pest or weed control at 200 ppm [3] | pest or weed control at 200 ppm (Phakopsora pachyrhizi) |
| --- | --- | --- | --- | --- | --- |
| 115 to 117 °C | CCN(C)/C=N/c1cc(OC)c(C(O)(c2ccccc2C)C(F)(F)F)cc1C (centres unmarked) [Compound E1.024] | ≥ 80% | ≥ 80% | ≥ 80% | ≥ 80% |
| 130 to 132 °C | CCN(C)/C=N/c1cc(OC)c(C(O)(c2cccc(F)c2)C(F)(F)F)cc1C (centres unmarked) [Compound E1.029] | ≥ 80% | ≥ 80% | ≥ 80% | ≥ 80% |
| 160 to 165 °C | CCN(C)/C=N/c1cc(SC)c(C(O)(c2ccccc2)C(F)(F)F)cc1C (centres unmarked) [Compound E1.113] | ≥ 80% |  | ≥ 80% |  |
| 112 to 114 °C | CCN(C)/C=N/c1cc(OC)c(C(O)(c2ccc(C)cc2)C(F)(F)F)cc1C (centres unmarked) [Compound E1.020] | ≥ 80% | ≥ 80% | ≥ 80% | ≥ 80% |
| 104 to 106 °C | CCN(C)/C=N/c1cc(OC)c(C(O)(c2ccccc2SC)C(F)(F)F)cc1C (centres unmarked) [Compound E1.032] | ≥ 80% | ≥ 80% | ≥ 80% |  |
| 177 to 180 °C | CCN(C)/C=N/c1cc(OC)c(C(O)(c2ccccc2S(C)(=O)=O)C(F)(F)F)cc1C (centres unmarked) [Compound E1.036] |  | ≥ 80% | ≥ 80% |  |
| 98 to 100 °C | CCN(C)/C=N/c1cc(OC)c(C(O)(c2cccc(Br)c2)C(F)(F)F)cc1C (centres unmarked) [Compound E1.023] | ≥ 80% | ≥ 80% | ≥ 80% | ≥ 80% |
| 89 to 91 °C | CCN(C)/C=N/c1cc(OC)c(C(O)(c2ccc(SC)cc2)C(F)(F)F)cc1C (centres unmarked) [Compound E1.041] | ≥ 80% |  | ≥ 80% |  |
| 114 to 116 °C | CCN(C)/C=N/c1cc(OC)c(C(O)(c2ccccc2Br)C(F)(F)F)cc1C (centres unmarked) [Compound E1.035] | ≥ 80% | ≥ 80% | ≥ 80% | ≥ 80% |
| 240 to 242 °C | CCN(C)/C=N/c1cc(OC)c(C(O)(c2ccc(O)cc2)C(F)(F)F)cc1C (centres unmarked) [Compound E1.043] | ≥ 80% |  | ≥ 80% |  |
| 130 to 132 °C | CCN(C)/C=N/c1cc(OC)c(C(O)(c2cccc(F)c2F)C(F)(F)F)cc1C (centres unmarked) [Compound E1.143] |  |  |  |  |
| 86 to 88 °C | COc1cc(/N=C/N(C)C(C)C)c(C)cc1C(O)(c1ccccc1F)C(F)(F)F (centres unmarked) [Compound E1.150] |  |  |  |  |

Source: patent publication US10723695B2, “Microbiocidal phenylamidine derivatives” (SYNGENTA PARTICIPATIONS AG, priority 2015, dated 2020)
